For data set [1], the system named is HEL cells. Briefly: Cell viability assay in HEL cells. The class given is cell-based. To be noted: Homo sapiens. As to the method: (§1) Cell Culture: RS4;11, MV4;11, MOLM-13 and other cells were cultured at 37° C. with 5% CO2 in RPMI 1640 or DMEM Medium supplemented with 10% fetal bovine serum. Cells were authenticated using the short tandem repeat (STR) assays. Mycoplasma test results were negative.
(§2) Cell viability assays: Cells were seeded at a density of 5000 cells per well in 96-well assay plates and treated with test compounds following a 8-point or 12-point 3-fold serial dilution. Three days later, cell viability was determined using the CellTiter-Glo assay kit according to the manufacturer's instructions. The dose-response curves were determined and IC50 values were calculated using the GraphPad Prism software following a nonlinear regression (least squares fit) method.
(§3) The compounds were tested in HEL, 22RV1, NCI-H82 or NCI-H1155 cells.

In data set [2] the test system is 22RV1 cells. Briefly: Cell viability assay in 22RV1 cells. The class given is cell-based. The following applies: Homo sapiens. As to the method:
as §1, §2, §3

Data set [3] deals with NCI-H82 cells. Briefly: Cell viability assay in NCI-H82 cells. The format is cell-based. To be noted: Homo sapiens. On the procedure: as §1, §2, §3
Data set [4] has as its system MOLM-13 cells. As to the kind of experiment: Cell viability assay (CellTiter-Glo) in MOLM-13 cells. The format is cell-based. To be noted: Homo sapiens, 72 h; MOLM-13 cells, compound alone, three days; read-out: MOLM-13 IC50. (In general: Cellular ATP, detected with luciferase, serves as a proxy for viable cell number.)
Data set [5] has as its target GSPT1 (Homo sapiens, UniProt P15170+Q96SW2). Details: MOLM-13 cells were treated at indicated concentrations with compounds GS-729, GS-731, GS-697, and GS-788 for 16 hours prior to immunoblotting; endogenous in cells; host or cells: MOLM-13. To be noted: Matyskiela, Lu et al. 2016; cited from earlier work.
The subject of data set [6] is tested cell lines. To be noted: Matyskiela, Lu et al. 2016; cited from earlier work.

Sequence of GSPT1 (P15170 whole entry): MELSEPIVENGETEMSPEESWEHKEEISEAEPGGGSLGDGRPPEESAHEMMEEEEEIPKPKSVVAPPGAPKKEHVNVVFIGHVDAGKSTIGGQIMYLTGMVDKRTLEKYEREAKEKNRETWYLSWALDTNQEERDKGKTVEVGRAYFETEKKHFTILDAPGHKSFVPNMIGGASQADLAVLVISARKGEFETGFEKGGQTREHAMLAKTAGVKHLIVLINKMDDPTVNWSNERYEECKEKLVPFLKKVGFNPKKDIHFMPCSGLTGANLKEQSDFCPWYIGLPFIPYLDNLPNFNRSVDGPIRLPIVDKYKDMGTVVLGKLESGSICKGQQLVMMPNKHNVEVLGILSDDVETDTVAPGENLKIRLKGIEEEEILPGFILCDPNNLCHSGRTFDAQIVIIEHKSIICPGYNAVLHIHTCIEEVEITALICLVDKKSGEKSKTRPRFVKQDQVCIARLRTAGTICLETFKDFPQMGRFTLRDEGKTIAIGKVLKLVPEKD
Sequence of GSPT1 (Q96SW2 whole entry): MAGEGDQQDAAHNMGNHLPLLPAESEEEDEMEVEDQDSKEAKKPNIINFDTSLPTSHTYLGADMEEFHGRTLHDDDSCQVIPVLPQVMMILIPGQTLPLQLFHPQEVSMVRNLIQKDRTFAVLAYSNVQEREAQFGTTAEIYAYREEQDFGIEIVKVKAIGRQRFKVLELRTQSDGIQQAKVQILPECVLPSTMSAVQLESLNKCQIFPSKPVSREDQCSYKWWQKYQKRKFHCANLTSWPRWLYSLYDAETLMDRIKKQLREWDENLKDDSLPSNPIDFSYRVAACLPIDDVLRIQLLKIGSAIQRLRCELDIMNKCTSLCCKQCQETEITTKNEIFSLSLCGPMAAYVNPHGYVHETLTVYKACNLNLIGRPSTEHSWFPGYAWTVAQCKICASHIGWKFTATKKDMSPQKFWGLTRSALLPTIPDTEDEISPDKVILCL
Sequence of GSPT1 (Q16531 whole entry partner): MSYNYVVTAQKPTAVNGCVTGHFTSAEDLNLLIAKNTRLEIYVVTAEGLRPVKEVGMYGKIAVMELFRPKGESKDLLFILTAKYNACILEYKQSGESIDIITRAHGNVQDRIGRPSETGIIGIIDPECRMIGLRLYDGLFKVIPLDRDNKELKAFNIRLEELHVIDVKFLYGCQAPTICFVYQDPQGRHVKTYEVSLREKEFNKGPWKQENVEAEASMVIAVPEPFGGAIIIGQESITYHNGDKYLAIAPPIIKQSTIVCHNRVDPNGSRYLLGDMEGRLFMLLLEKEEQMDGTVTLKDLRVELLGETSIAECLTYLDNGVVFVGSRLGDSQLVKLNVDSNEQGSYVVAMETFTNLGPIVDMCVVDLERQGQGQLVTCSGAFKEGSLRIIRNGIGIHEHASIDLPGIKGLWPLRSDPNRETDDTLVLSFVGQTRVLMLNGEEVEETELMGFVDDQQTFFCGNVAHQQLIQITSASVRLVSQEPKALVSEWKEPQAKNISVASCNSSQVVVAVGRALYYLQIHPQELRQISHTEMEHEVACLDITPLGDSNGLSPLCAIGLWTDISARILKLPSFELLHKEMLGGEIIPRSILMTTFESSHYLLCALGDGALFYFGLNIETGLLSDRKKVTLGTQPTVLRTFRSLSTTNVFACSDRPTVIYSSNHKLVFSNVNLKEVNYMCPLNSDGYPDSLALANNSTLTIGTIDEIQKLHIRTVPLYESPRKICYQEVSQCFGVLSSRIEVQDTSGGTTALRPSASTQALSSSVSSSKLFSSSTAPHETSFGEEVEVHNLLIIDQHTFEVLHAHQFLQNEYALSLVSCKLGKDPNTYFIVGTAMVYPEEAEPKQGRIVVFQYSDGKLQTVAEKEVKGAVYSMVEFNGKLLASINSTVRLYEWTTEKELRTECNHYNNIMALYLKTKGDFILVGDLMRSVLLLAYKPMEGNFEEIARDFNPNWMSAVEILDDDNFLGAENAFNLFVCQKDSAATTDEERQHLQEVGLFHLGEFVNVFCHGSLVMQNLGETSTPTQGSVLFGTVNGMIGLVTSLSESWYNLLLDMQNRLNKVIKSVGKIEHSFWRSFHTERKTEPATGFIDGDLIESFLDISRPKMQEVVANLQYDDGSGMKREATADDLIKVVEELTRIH

`Cc1nc(-c2cn([C@H]3C[C@H](CNc4ccc5c(c4)CN([C@H]4CCC(=O)NC4=O)C5=O)C3)nc2C2CC2)ccc1F` [GS-800, (S)-3-(5-(((trans-3-(3-cyclopropyl-4-(5-fluoro-6-methylpyridin-2-yl)-1H-pyrazol-1-yl)cyclobutyl)methyl)amino)-1-oxoisoindolin-2-yl)piperidine-2,6-dione]: the concentration for half-maximal inhibition (IC50) in data set [1] was 0.01 to 0.1 µM; in data set [2], less than 0.01 µM; in data set [3] it was less than 0.01 µM; in data set [4], less than 0.01 µM.
Take `Cc1ccc(F)c(-c2cn([C@H]3C[C@H](CNc4ccc5c(c4)CN(C4CCC(=O)NC4=O)C5=O)C3)nc2C2CC2)n1` (stereo partly drawn) [GS-807, 3-(5-(((Trans-3-(3-cyclopropyl-4-(3-fluoro-6-methylpyridin-2-yl)-1H-pyrazol-1-yl)cyclobutyl)methyl)amino)-1-oxoisoindolin-2-yl)piperidine-2,6-dione]: the IC50 in data set [1], in data set [2] and in data set [3] was less than 0.01 µM throughout.
`Cc1ccc(NC(=O)NCc2ccc3c(c2)CN(C2CCC(=O)NC2=O)C3=O)cc1Cl` (centres unmarked) [CC-885]: in data set [5], the “cereblon-dependent degradation of GSPT1” value is “led to cereblon-dependent degradation of GSPT1”. In addition, in data set [6], the “toxicity in tested cell lines” value was “induced significant toxicity in the vast majority of tested cell lines”.
With `CNc1nc(-c2cn([C@H]3C[C@H](CNc4ccc5c(c4)CN(C4CCC(=O)NC4=O)C5=O)C3)nc2C2CC2)ccc1F` (stereo partly drawn) [GS-808, 3-(5-(((Trans-3-(3-cyclopropyl-4-(5-fluoro-6-(methylamino)pyridin-2-yl)-1H-pyrazol-1-yl)cyclobutyl)methyl)amino)-1-oxoisoindolin-2-yl)piperidine-2,6-dione], the 50% inhibitory concentration (IC50) in data set [3] was less than 0.01 µM.
`Cc1ccc(Cl)c(-c2cn([C@H]3C[C@H](CNc4ccc5c(c4)CN(C4CCC(=O)NC4=O)C5=O)C3)nc2C2CC2)n1` (stereo partly drawn) [GS-805, 3-(5-(((Trans-3-(4-(3-chloro-6-methylpyridin-2-yl)-3-cyclopropyl-1H-pyrazol-1-yl)cyclobutyl)methyl)amino)-1-oxoisoindolin-2-yl)piperidine-2,6-dione]: the IC50 in data set [1] is less than 0.01 µM.

By IC50 is commonly meant the concentration that gives 50% inhibition.

The values are drawn from patent US20250221988A1 (Cullgen (Shanghai), Inc., priority 2022, published 2025).
